In US11207301B2, “Sphingosine 1 phosphate receptor agonists for neuroprotection” (RECEPTOS LLC, priority 2017, dated 2021):

How the values were obtained:
Format in all cases: cell-based
[1] = tested on: ERK phosphorylation in primary rat astrocytes; assay: ERK phosphorylation in primary rat astrocytes (MSD pERK assay); details: 10-minute exposure, mean of n=3
Description: (§1) For the experiments using rat primary astrocytes, eight-point concentration-response curves were generated for AKT and ERK phosphorylation in primary rat astrocytes cultures in response to a 10-minute treatment with ozanimod (100 nM-46 pM), Compound 3 (10 nM-5 pM), Compound 1 (10 nM-5 pM), or FTY720-P (10 nM-5 pM). Phosphorylation of AKT and ERK was quantified using Meso Scale Discovery assay kits (MSD Mutli-Spot Phopho-AKT (Ser473) Assay Kit and MSD Multi-Spot MAP Kinase Phosphoprotein Assay Whole Cell Lysate Kit) and imaging platform. AKT and ERK phosphorylation within treated astrocytes were assessed as the mean change in signal intensity compared to DMSO vehicle and the half maximal effective concentration (EC50) was determined using non-linear regression.
(§2) Embryonic day18 (E18) rat cortices were purchased from BrainBits LLC. (Springfield, Ill.) and were cultured according to the supplier's protocol. Briefly, cortices were incubated at 37° C. for 10 minutes in activated papain solution before trituration in hibernation medium containing B27 supplement using a modified siliconized glass Pasteur pipette. The cell suspension was centrifuged at 1100×g for 1 minute at room temperature (RT). The cell pellet was then resuspended in NbAstro medium (BrainBits LLC.) and the live cell density was assessed using a cell counter. Primary cells were plated at a density of 7500 cells/cm2 in T75 tissue culture flasks coated with poly-D-lysine (PDL) in a total volume of 12 mL of NbAstro media, and incubated for 10-14 days at 37° C. 5% CO2. After 10-14 days, primary astrocytes in passage 0 (P0) that had reached confluency in the T75 flasks were detached using TrypLE detachment reagent, pelleted at 300×g, and plated into poly-d-lysine coated T225 flasks in 20 mL of NbAstro media, and incubated for another 7 days at 37° C. 5% CO2. After 7 days, primary P1 astrocytes in confluent T225 flasks were detached using TrypLE detachment reagent, pelleted at 300×g, and plated intopoly-d-lysine coated 96-well plates at 10,000 cells per well in 200 μL of NbAstro media, and incubated for 7 days at 37° C. 5% CO2. After 7 days, P2 primary astrocytes were utilized for pAKT and pERK assays.
(§3) The pERK (phosphorylated ERK)/pMAPkinase assay was performed according to the manufacturer's protocol. Briefly, MSD pERK/pMAPkinase plates were blocked for 1-2 hours by adding 150 μL of blocker A prepared in 1× Tris wash buffer. […] Following antibody incubation, plates were washed three times with 150 μL of 1× Tris wash buffer and 1× read buffer (150 μL/well) was added. Finally, the plates were read in the MSD imager platform to assess the pERK levels.
(§4) AKT and ERK phosphorylation data were analyzed by non-linear regression (GraphPad Prism, version 6) to determine the EC50 values.

[2] = tested on: ERK phosphorylation in primary human astrocytes; assay: ERK phosphorylation in primary human cortical astrocytes (AlphaLISA SureFire Ultra); details: 10-minute exposure, n=3-5
Description: (§5) For the experiments using mouse and human primary astrocytes, ten-point concentration-response curves (90 nM-4.57 pM or 30 nM-1.52 pM) were generated for AKT and/or ERK phosphorylation in primary human and mouse cortical astrocytic cultures in response to a 10-minute treatment with ozanimod, Compound 3, Compound 1, or FTY720-P. AKT and ERK phosphorylation were quantified using AlphaLISA SureFire Ultra Assay kits and the EnVision Plate Reader. AKT and ERK phosphorylation within treated astrocytes were expressed as the mean change in signal intensity compared to the dimethyl sulfoxide (DMSO) vehicle and the half maximal effective concentration (EC50) was determined using non-linear regression.
Primary human astrocytes were purchased from ScienCell Research Laboratories, Inc. and cultured according to the supplier's protocol. The astrocytes were obtained from the human cerebral cortex, cryopreserved at passage one, and delivered frozen. The frozen vials of cells were gently thawed in a 37° C. water bath. Once the contents of the vial were completely thawed, the cell solution was dispensed into a poly-L-lysine (PLL) coated T75 tissue culture flask with 16 mL of human Astrocyte Media, (ScienCell Research Laboratories, Inc.) and incubated at 37° C. 5% CO2. Once the human astrocytes had reached confluency in the T75 flask, they were detached using trypsin/EDTA 0.25%, pelleted at 300×g, split into two PLL coated T225 tissue culture flasks in 40 mL of astrocyte media, and incubated at 37° C. 5% CO2. Once the astrocytes reached confluency in the T225 flasks, they were detached using trypsin/EDTA 0.25% solution, pelleted at 300×g, plated into poly-D-lysine (PDL) coated 96-well plates at a density of 10,000 cells per well in 200 μL human Astrocyte Media, and incubated at 37° C. 5% CO2. Half of the media was replenished every 3-4 days. After 5-7 days of incubation, the P2 human astrocyte plates were utilized for the pERK and pAKT assays.
(§6) Cell lysis and detection of pERK were performed according to the PerkinElmer AlphaLISA SureFire Ultra p-ERK1/2 (Thr202/TYR 204) assay protocol. Astrocytes were lysed in the 96-well plate following a 10 minute incubation with compounds with shaking at RT. The astrocytic lysates (10 μL/well) were transferred into a 384-well OptiPlate. As specified by the assay protocol, an acceptor bead mix and a donor bead mix (5 μL/well for each) were added to the plate under subdued light. Plates were sealed with adhesive plate seals and incubated in the dark for 2 hours at RT. The plates were read on the EnVision Plate Reader to assess the pERK levels.
(§7) The AKT and ERK phosphorylation data, collected by a Perkin Elmer EnVision Microplate Reader, was analyzed by non-linear regression (GraphPad Prism, version 7.03) to determine the EC50 values.

[3] = tested on: AKT phosphorylation in primary rat astrocytes; assay: AKT phosphorylation in primary rat astrocytes (MSD pAKT assay); details: 10-minute exposure, mean of n=4
Description: as §1, §2
as §3, with “pAKT” for “pERK”, “AKT)” for “ERK)/pMAPkinase”, “pAKT” for “pERK/pMAPkinase”, “Finally,” for “Finally, the”, “pAKT” for “the pERK”
as §4

[4] = tested on: ERK phosphorylation in primary mouse astrocytes; assay: ERK phosphorylation in primary mouse cortical astrocytes (AlphaLISA SureFire Ultra); details: 10-minute exposure
Description: as §5
Timed pregnant (E16) C57BL/6J female mice arrive to the test facility on a weekly basis and were housed and cared for according to appropriate protocols for this model. Primary mouse cortical astrocytes are harvested from P0-P2 pups. The newly born animals were deeply anesthetized on ice, decapitated, and the brains were rapidly removed and stored in ice-cold NbAstro media (BrainBits, LLC). Cells were dissociated from freshly dissected cortices by mechanical disruption in the presence of trypsin and DNase. Cells were put into a PDL coated T75 tissue culture flask containing 16 mL NbAstro Media and incubated at 37° C. 5% CO2. Once the mouse astrocytes had reached confluency in the T75 flask, they were detached using TripLE detachment reagent, pelleted at 300×g, expanded into two T225 PDL coated tissue culture flasks containing 40 mL of NbAstro and incubated at 37° C. 5% CO2. […]
Cell lysis and detection of pERK were performed according to the PerkinElmer AlphaLISA SureFire Ultra p-ERK1/2 (Thr202/TYR 204) assay protocol. […] The plates were read on the EnVision Plate Reader to assess the pERK levels.
as §7

[5] = tested on: AKT phosphorylation in primary mouse astrocytes; assay: AKT phosphorylation in primary mouse cortical astrocytes (AlphaLISA SureFire Ultra); details: 10-minute exposure, mean of n=3
Description: as §5
Timed pregnant (E16) C57BL/6J female mice arrive to the test facility on a weekly basis and were housed and cared for according to appropriate protocols for this model. Primary mouse cortical astrocytes are harvested from P0-P2 pups. The newly born animals were deeply anesthetized on ice, decapitated, and the brains were rapidly removed and stored in ice-cold NbAstro media (BrainBits, LLC). Cells were dissociated from freshly dissected cortices by mechanical disruption in the presence of trypsin and DNase. Cells were put into a PDL coated T75 tissue culture flask containing 16 mL NbAstro Media and incubated at 37° C. 5% CO2. Once the mouse astrocytes had reached confluency in the T75 flask, they were detached using TripLE detachment reagent, pelleted at 300×g, expanded into two T225 PDL coated tissue culture flasks containing 40 mL of NbAstro and incubated at 37° C. 5% CO2. Once the astrocytes reached confluency in the T225 flasks they were detached using TrypLE detachment reagent, pelleted at 300×g, plated into PDL coated 96-well plates at a density of 10,000 cells per well in 200 μL NbAstro and incubated at 37° C. 5% CO2. Half of the media was replenished every 3-4 days. After 5-7 days of incubation, the P2 mouse astrocyte plates were utilized for the pERK and pAKT assays.
as §6, with “pAKT” for “pERK”, “pAKT1/2/3 ([…])” for “p-ERK1/2 (Thr202/TYR 204)”, “room temperature (RT).” for “RT.”, “Plates were sealed with adhesive plate seals and incubated in the dark for 2 hours at RT.” left out
as §7

Structure (SMILES): CCCCCCCCc1ccc(CC[C@](N)(CO)COP(=O)(O)O)cc1 [FTY720-P, reference compound]
- EC50 [1]: 0.16 nM
- EC50 [2]: 0.73 nM
- EC50 [3]: 0.17 nM
- EC50 [4]: 0.14 nM
- EC50 [5]: 0.09 nM
